Counter-ions that a name gives are not always drawn.
Legend:
[1] = molecular target: T1, KRAS_G12D and cRAF (Homo sapiens, UniProt P01116, G12D); test: Inhibition of KRAS_G12D/cRAF binding (Cisbio binding kit, 665/615 ratio), Effect Embodiment B; conditions: read-out: GTP-KRAS-G12D:CRAF IC50
T1 construct: purchased
Summary of the method: (§1)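 Duplicate wells received an eleven-point, threefold compound titration whose top point was the stock solution; final DMSO 1%.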

[2] = molecular target: T2, KRAS-G12D and SOS1 (Homo sapiens, UniProt P01116, G12D); test: Inhibition of KRAS-G12D/SOS1 binding (Cisbio binding kit, 665/615 ratio), Effect Embodiment A; conditions: read-out: GTP-KRAS-G12D:SOS1 IC50
T2 construct: purchased
Summary of the method: as §1

[3] = molecular target: T3, KRAS_WT and SOS1 (Homo sapiens, UniProt P01116); test: Inhibition of KRAS_WT/SOS1 binding (Cisbio binding kit, 665/615 ratio), Effect Embodiment C; conditions: read-out: GTP-KRAS-WT:SOS1 IC50
T3 construct: purchased
Summary of the method: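 Compounds tested as 3-fold, 11-point dilutions in duplicate at 1% DMSO final against the KRAS_WT/SOS1 binding system. IC50 derived by nonlinear regression fit.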

T3 sequence (P01116 1-188 isoform P01116-2): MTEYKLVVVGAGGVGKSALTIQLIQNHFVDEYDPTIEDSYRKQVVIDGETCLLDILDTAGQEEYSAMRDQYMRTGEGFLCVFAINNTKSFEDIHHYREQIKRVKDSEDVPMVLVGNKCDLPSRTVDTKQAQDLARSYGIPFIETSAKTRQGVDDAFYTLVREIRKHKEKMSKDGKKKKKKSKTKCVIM
T1 sequence (P01116 1-188 isoform P01116-2 G12D): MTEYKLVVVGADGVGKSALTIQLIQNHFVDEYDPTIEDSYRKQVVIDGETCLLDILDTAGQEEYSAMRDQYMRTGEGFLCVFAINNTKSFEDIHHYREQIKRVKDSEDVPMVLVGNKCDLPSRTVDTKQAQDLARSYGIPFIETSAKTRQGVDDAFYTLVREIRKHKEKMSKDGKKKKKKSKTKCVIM
T2 sequence (P01116 1-188 isoform P01116-2 G12D): as above

SMILES | IC50 [1] | IC50 [2] | IC50 [3]
CN(C)C1CN(c2nc(N3C[C@H]4CC[C@@H](C3)N4)c3cc(Cl)c(-c4cc(O)cc5ccccc45)c(F)c3n2)C1 (single isomer, unassigned) [Compound 5a, (R or S)-4-(4-((1R,5S)-3,8-diazabicyclo [3.2.1]octan-3-yl)-6-chloro-2-(3-(dimethylamino)azetidin-1-yl)-8-fluoro-quinazolin-7-yl)naphthalen-2-ol] | 251 nM | 41.4 nM | 1810 nM
Oc1cc(-c2c(Cl)cc3c(N4CC5CCC(C4)N5)nc(OCC45CCN(CC4)CC5)nc3c2F)c2ccccc2c1 (single isomer, unassigned) [Compound 260, 4-((S or R)-4-((1R,5S)-3,8-diazacyclo[3.2.1]octan-3-yl)-6-chloro-8-fluoro-2-(quinin-4-ylmethoxy)quinazolin-7-yl)naphthalen-2-ol diformate] | 157 nM | 25.9 nM | 4420 nM
C[C@@H]1COCCN1CCCOc1nc(N2C[C@H]3CC[C@@H](C2)N3)c2cc(Cl)c(-c3cc(O)cc4ccccc34)c(F)c2n1 (single isomer, unassigned) [Compound 181, (R or S)-4-(4-((1R,5S)-3,8-diazabicyclo[3.2.1]octan-3-yl)-6-chloro-8-fluoro-2-(3-((R)-3-methylmorpholinyl)propoxy)quinazolin-7-yl)naphthalen-2-ol diformate] | 136 nM | 38.1 nM | 3090 nM
CN(C)C1CCC(Oc2nc(N3CC4CCC(C3)N4)c3cc(Cl)c(-c4cc(O)cc5ccccc45)c(F)c3n2)C1 (single isomer, unassigned) [Compound 70d, 4-((S or R)-4-((1R,5S)-3,8-diazabicyclo[3.2.1]octan-3-yl)-6-chloro-2-((1R,3R or 1S,3S)-3-(dimethylamino)cyclopentyl)oxy)-8-fluoroquinazolin-7-yl)naphthalen-2-ol dihydrochloride] | 356 nM | 93.9 nM | 60500 nM
CC[C@@H]1CN(CCCOc2nc(N3CC4CCC(C3)N4)c3cc(Cl)c(-c4cc(O)cc5ccccc45)c(F)c3n2)C[C@H](CC)O1 (single isomer, unassigned) [Compound 221, 4-((S or R)-4-((1R,5S)-3,8-diazabicyclo[3.2.1]octan-3-yl)-6-chloro-2-(3-((2S,6R)-2,6-diethylmorpholinyl)propoxy)-8-fluoroquinazolin-7-yl)naphthalen-2-ol formate] | 175 nM | 63.6 nM | 5030 nM
CN(C)C1CN(c2nc(N3CCNCC34CC4)c3cc(Cl)c(-c4cc(O)cc5ccccc45)c(F)c3n2)C1 (single isomer, unassigned) [Compound 19a, (R or S)-4-(6-chloro-2-(3-(dimethylamino)azetidin-1-yl)-8-fluoro-4-(4,7-diazaspiro[2.5]octan-4-yl)quinazolin-7-yl)naphthalen-2-ol] | 1630 nM | 898 nM | 9420 nM
CN(C)C1CCC(Oc2nc(N3CC4CCC(C3)N4)c3cc(Cl)c(-c4cc(O)cc5ccccc45)c(F)c3n2)C1 (single isomer, unassigned) [Compound 70a, 4-((S or R)-4-((1R,5S)-3,8-diazabicyclo[3.2.1]octan-3-yl)-6-chloro-2-((1S,3R or 1R,3S)-3-(dimethylamino)cyclopentyl)oxy)-8-fluoroquinazolin-7-yl)naphthalen-2-ol dihydrochloride] | 592 nM | 93.9 nM | > 100000 nM
CN1CC(C)(COc2nc(N3CC4CCC(C3)N4)c3cc(Cl)c(-c4cc(O)cc5ccccc45)c(F)c3n2)C1 (single isomer, unassigned) [Compound 110, 4-((S or R)-4-((1R,5S)-3,8-diazacyclo[3.2.1]octan-3-yl)-6-chloro-2-((1,3-dimethylnonanetriacyl)methoxy)-8-fluoroquinazin-7-yl)naphthalen-2-ol ditrifluoroacetate] | 143 nM | 39.6 nM | 1530 nM
Oc1cc(-c2c(Cl)cc3c(N4CC5CCC(C4)N5)nc(OCC(F)CN4CCCC4)nc3c2F)c2ccccc2c1 (single isomer, unassigned) [Compound 109a, 4-((S or R)-4-((1R,5S)-3,8-diazabicyclo[3.2.1]octan-3-yl)-6-chloro-8-fluoro-2-((S or R)-2-fluoro-3-(pyrrolidin-1-yl)propoxy)quinazolin-7-yl)naphthalen-2-ol hydrochloride] | 89.3 nM | 27 nM | 2570 nM
Oc1cc(-c2c(Cl)cc3c(N4CC5CCC(C4)N5)nc(OCCN4C5CC6CC4CC(C5)O6)nc3c2F)c2ccccc2c1 (single isomer, unassigned) [Compound 238, (S or R)-4-(2-(2-((1R,3R,5R,7R)-2-oxa-6-azadamantan-6-yl)ethoxy)-4-((1R,5S)-3,8-diazabicyclo[3.2.1]octan-3-yl)-6-chloro-8-fluoroquinazolin-7-yl)naphthalen-2-ol formate] | 155 nM | 43.3 nM | 3080 nM

Continued, values first:

IC50 [1] | IC50 [2] | IC50 [3] | SMILES
102 nM | 21.6 nM | 1560 nM | CN(C)CCCOc1nc(N2C[C@H]3CC[C@@H](C2)N3)c2cnc(-c3cc(O)cc4ccccc34)c(F)c2n1 [Compound 82, 4-(4-((1R,5S)-3,8-diazabicyclo[3.2.1]octan-3-yl)-2-(3-(dimethylamino)propoxy)-8-fluoropyrido[4,3-d]pyrimidin-7-yl)naphthalen-2-ol]
37 nM | 20.9 nM | 222 nM | CN1C[C@H](F)C[C@H]1COc1nc(N2CC3CCC(C2)N3)c2cnc(-c3cc(O)cc4ccccc34)c(F)c2n1 [Compound 131]
107 nM | 22.4 nM | 1110 nM | CN(CCCCN1CCN(CCCCN)CC1)CCCOc1nc(N2CC3CCC(C2)N3)c2cc(Cl)c(-c3cc(O)cc4ccccc34)c(F)c2n1 (single isomer, unassigned) [Compound 111, (S or R) 4-(2-(3-((4-(4-aminobutyl)piperazin-1-yl)butyl)(methyl)amino)propoxy)-4-((1R,5S)-3,8-diazabicyclo[3.2.1]octan-3-yl)-6-chloro-8-fluoroquinazolin-7-yl)naphthalen-2-ol pentahydrochloride]
5.44 nM | 11.9 nM | 52.4 nM | CCc1c(F)ccc2cc(O)cc(-c3c(F)cc4c(N5CC6CCC(C5)N6)nc(OCCCN5C6CCC5COC6)nc4c3F)c12 (single isomer, unassigned) [Compound 215a, 4-((7S or 7R)-2-(3-(3-oxa-8-azabicyclo[3.2.1]octan-8-yl)propoxy)-4-((1R,5S)-3,8-diazabicyclo[3.2.1]octan-3-yl)-6,8-difluoroquinazolin-7-yl)-5-ethyl-6-fluoronaphthalen-2-ol diformate]
67.6 nM | 27.6 nM | 257 nM | CCc1c(F)ccc2cc(O)cc(-c3c(Cl)cc4c(N5CC6CCC(C5)N6)nc(OCCCN5C6CCC5COC6)nc4c3F)c12 (single isomer, unassigned) [compound 251]
13.6 nM | 16.5 nM | 175 nM | CCc1cccc2cc(O)cc(-c3c(F)cc4c(N5CC6CCC(C5)N6)nc(OCCCN5CCOC[C@H]5C)nc4c3F)c12 (single isomer, unassigned) [Compound 282a, (S or R)-4-(4-((1R,5S)-3,8-diazacyclo[3.2.1]octan-3-yl)-6,8-difluoro-2-(3-((R)-3-methylmorpholinyl)propoxy)quinazolin-7-yl)-5-ethylnaphthalen-2-ol dihydrochloride]
17.8 nM | 17.2 nM | 969 nM | C[C@@H](COc1nc(N2CC3CCC(C2)N3)c2cc(Cl)c(-c3cc(O)cc4ccccc34)c(F)c2n1)CN1C[C@H](C)OC[C@@H]1C (single isomer, unassigned) [Compound 225, 4-((S or R)-4-((1R,5S)-3,8-diazabicyclo[3.2.1]octan-3-yl)-6-chloro-2-((R)-3-((2S,5S)-2,5-dimethylmorpholinyl)-2-methylpropoxy)-8-fluoroquinazolin-7-yl)naphthalenol formate]
7.91 nM | 11.3 nM | 69.8 nM | C#Cc1cccc2cc(O)cc(-c3c(F)cc4c(N5CC6CCC(C5)N6)nc(OCCCN5C6CCC5COC6)nc4c3F)c12 (single isomer, unassigned) [Compound 273a, 4-((7S or 7R)-2-(3-(3-oxa-8-azabicyclo[3.2.1]octan-8-yl)propoxy)-4-((1R,5S)-3,8-diazabicyclo[3.2.1]octan-3-yl)-6,8-difluoroquinazolin-7-yl)-5-ethynylnaphthalen-2-ol diformate]
18.6 nM | 13.2 nM | 1350 nM | CO[C@@H]1C[C@H]2CC[C@@H](C1)N2C[C@@H](C)COc1nc(N2CC3CCC(C2)N3)c2cc(Cl)c(-c3cc(O)cc4ccccc34)c(F)c2n1 (single isomer, unassigned) [Compound 224, 4-((S or R)-4-((1R,5S)-3,8-diazabicyclo[3.2.1]octan-3-yl)-6-chloro-8-fluoro-2-((R)-3-((1R,3S,5S)-3-methoxy-8-azabicyclo[3.2.1]octan-8-yl)-2-methylpropoxy)quinazolin-7-yl)naphthalen-2-ol diformate]
134 nM | 17.8 nM | 1580 nM | Oc1cc(-c2c(Cl)cc3c(N4CC5CCC(C4)N5)nc(OCCCN4CCCC4)nc3c2F)c2ccccc2c1 (single isomer, unassigned) [Compound 63a, 4-((S or R)-4-((1R,5S)-3,8-diazabicyclo[3.2.1]octan-3-yl)-6-chloro-8-fluoro-2-(3-(pyrrolidin-1-yl)propoxy)quinazolin-7-yl)naphthalen-2-ol]

From US20230365563A1, “QUINAZOLINE COMPOUND AND APPLICATION THEREOF” (SHANGHAI PHARMACEUTICALS HOLDING CO., LTD., priority 2020, published 2023)
